Experimental data published in US20150344540A1, “NOVEL GLP-1 RECEPTOR AGONISTS WITH CHOLESTEROL EFFLUX ACTIVITY” (NOVO NORDISK A/S, priority 2012, published 2015).
Where two headings read alike, the source gives them in different places. Where a SMILES comes first, the peptide text is derived from it. [ ]: non-standard residue; d: D form. Aib = CC(C)(N)C(=O)O

Experiments:
[1] = tested on: Mouse monocyte/macrophage cell line, RAW 264.7; test: Cholesterol efflux assay (3H-cholesterol, macrophage cell line); type: cell-based; details: RAW 264.7, 4 hrs incubation, 0.1% human serum albumin, ABCA1-mediated efflux
[2] = target: human GLP-1 receptor (Homo sapiens, UniProt P43220); test: Functional GLP-1 receptor assay, in vitro potency (CRE luciferase; whole cells); type: cell-based; details: BHK cells expressing human GLP-1 receptor
Sequence of human GLP-1 receptor (P43220 24-463): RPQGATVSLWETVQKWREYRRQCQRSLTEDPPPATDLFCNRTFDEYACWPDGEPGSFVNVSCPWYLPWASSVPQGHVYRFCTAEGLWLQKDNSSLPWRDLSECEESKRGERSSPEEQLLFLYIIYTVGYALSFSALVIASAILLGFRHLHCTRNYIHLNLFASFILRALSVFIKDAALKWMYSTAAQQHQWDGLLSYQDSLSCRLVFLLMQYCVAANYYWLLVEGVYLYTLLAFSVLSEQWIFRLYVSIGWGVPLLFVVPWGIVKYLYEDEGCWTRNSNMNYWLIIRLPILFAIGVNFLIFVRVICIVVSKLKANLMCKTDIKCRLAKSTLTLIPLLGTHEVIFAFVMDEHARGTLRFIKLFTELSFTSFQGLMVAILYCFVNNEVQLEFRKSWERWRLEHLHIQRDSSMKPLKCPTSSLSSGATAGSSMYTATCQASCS

[3] = GLP1R CRE luc 1% HSA EC50 Mean Value, 1% HSA
[4] = 0% HSA, read-out: GLP1R CRE luc 0% HSA EC50 Mean Value

Structure (SMILES)	EC50 [2, 3]	EC50 [2, 4]	4 h Cholesterol Efflux Emax [1]
CC[C@H](C)[C@H](NC(=O)[C@H](Cc1ccccc1)NC(=O)[C@H](CCC(=O)O)NC(=O)[C@H](CCC(N)=O)NC(=O)[C@@H](NC(=O)[C@H](C)NC(=O)[C@H](CCC(=O)O)NC(=O)CNC(=O)[C@H](CCC(=O)O)NC(=O)[C@H](CC(C)C)NC(=O)[C@H](Cc1ccc(O)cc1)NC(=O)[C@H](CO)NC(=O)[C@H](CO)NC(=O)[C@@H](NC(=O)[C@H](CC(=O)O)NC(=O)[C@H](CO)NC(=O)[C@@H](NC(=O)[C@H](Cc1ccccc1)NC(=O)[C@@H](NC(=O)CNC(=O)[C@H](CCC(=O)O)NC(=O)C(C)(C)NC(=O)[C@@H](N)Cc1c[nH]cn1)[C@@H](C)O)[C@@H](C)O)C(C)C)C(C)C)C(=O)N[C@@H](C)C(=O)N[C@@H](Cc1c[nH]c2ccccc12)C(=O)N[C@@H](CC(C)C)C(=O)N[C@H](C(=O)N[C@@H](CCC(=O)O)C(=O)N[C@@H](C)C(=O)N[C@H](C(=O)N[C@@H](C)C(=O)N[C@@H](CCC(=O)O)C(=O)N[C@@H](Cc1ccccc1)C(=O)N[C@@H](CC(C)C)C(N)=O)C(C)C)C(C)C [Compound 94] (H-H[Aib]EGTFTSDVSSYLEGEAVQEFIAWLVEAVAEFL-NH2)	273 pM		74%
CC[C@H](C)[C@H](NC(=O)[C@H](Cc1ccccc1)NC(=O)[C@H](CCC(=O)O)NC(=O)[C@H](CCC(N)=O)NC(=O)[C@@H](NC(=O)[C@H](C)NC(=O)[C@H](CCC(=O)O)NC(=O)CNC(=O)[C@H](CCC(=O)O)NC(=O)[C@H](CC(C)C)NC(=O)[C@H](Cc1ccc(O)cc1)NC(=O)[C@H](CO)NC(=O)[C@H](CO)NC(=O)[C@@H](NC(=O)[C@H](CC(=O)O)NC(=O)[C@H](CO)NC(=O)[C@@H](NC(=O)[C@H](Cc1ccccc1)NC(=O)[C@@H](NC(=O)CNC(=O)[C@H](CCC(=O)O)NC(=O)C(C)(C)NC(=O)[C@@H](N)Cc1c[nH]cn1)[C@@H](C)O)[C@@H](C)O)C(C)C)C(C)C)C(=O)N[C@@H](C)C(=O)N[C@@H](Cc1c[nH]c2ccccc12)C(=O)N[C@@H](CC(C)C)C(=O)N[C@H](C(=O)N[C@@H](CCC(=O)O)C(=O)N[C@@H](CCC(N)=O)C(=O)NC(C)(C)C(=O)N[C@@H](CCC(N)=O)C(=O)N[C@@H](CCC(=O)O)C(=O)N[C@@H](Cc1ccccc1)C(=O)N[C@@H](CC(C)C)C(N)=O)C(C)C [Compound 95] (H-H[Aib]EGTFTSDVSSYLEGEAVQEFIAWLVEQ[Aib]QEFL-NH2)	40 pM		59%
CC[C@H](C)[C@H](NC(=O)[C@H](Cc1ccccc1)NC(=O)[C@H](CCC(=O)O)NC(=O)[C@H](CCCCN)NC(=O)[C@@H](NC(=O)[C@H](C)NC(=O)[C@H](CCC(=O)O)NC(=O)CNC(=O)[C@H](CCC(=O)O)NC(=O)[C@H](CC(C)C)NC(=O)[C@H](Cc1ccc(O)cc1)NC(=O)[C@H](CO)NC(=O)[C@H](CO)NC(=O)[C@@H](NC(=O)[C@H](CC(=O)O)NC(=O)[C@H](CO)NC(=O)[C@@H](NC(=O)[C@H](Cc1ccccc1)NC(=O)[C@@H](NC(=O)CNC(=O)[C@H](CCC(=O)O)NC(=O)C(C)(C)NC(=O)[C@@H](N)Cc1c[nH]cn1)[C@@H](C)O)[C@@H](C)O)C(C)C)C(C)C)C(=O)N[C@@H](C)C(=O)N[C@@H](Cc1c[nH]c2ccccc12)C(=O)N[C@@H](CC(C)C)C(=O)N[C@H](C(=O)N[C@@H](CCC(=O)O)C(=O)N[C@@H](CCCCN)C(=O)N[C@H](C(=O)N[C@@H](CCCCN)C(=O)N[C@@H](CCC(=O)O)C(=O)N[C@@H](CCCCN)C(N)=O)C(C)C)C(C)C [Compound 110, [Aib8,Glu23,Val25,Glu34,Lys35,Val36,Lys37]-GLP-1-(7-37)-peptidyl-Glu-Lvs amide] (H-H[Aib]EGTFTSDVSSYLEGEAVKEFIAWLVEKVKEK-NH2)	14 pM	43 pM	106%
CC[C@H](C)[C@H](NC(=O)[C@H](Cc1ccccc1)NC(=O)[C@H](CCC(=O)O)NC(=O)[C@H](CCCCN)NC(=O)[C@@H](NC(=O)[C@H](C)NC(=O)[C@H](CCC(=O)O)NC(=O)CNC(=O)[C@H](CCC(=O)O)NC(=O)[C@H](CC(C)C)NC(=O)[C@H](Cc1ccc(O)cc1)NC(=O)[C@H](CO)NC(=O)[C@H](CO)NC(=O)[C@@H](NC(=O)[C@H](CC(=O)O)NC(=O)[C@H](CO)NC(=O)[C@@H](NC(=O)[C@H](Cc1ccccc1)NC(=O)[C@@H](NC(=O)CNC(=O)[C@H](CCC(=O)O)NC(=O)C(C)(C)NC(=O)[C@@H](N)Cc1c[nH]cn1)[C@@H](C)O)[C@@H](C)O)C(C)C)C(C)C)C(=O)N[C@@H](CCC(=O)O)C(=O)N[C@@H](Cc1c[nH]c2ccccc12)C(=O)N[C@@H](CC(C)C)C(=O)N[C@H](C(=O)N[C@@H](CCC(=O)O)C(=O)N[C@@H](CCCCN)C(=O)N[C@H](C(=O)N[C@@H](CCCCN)C(=O)N[C@@H](CCC(=O)O)C(=O)N[C@@H](CCCCN)C(=O)N[C@@H](CC(C)C)C(N)=O)C(C)C)C(C)C [Compound 112] (H-H[Aib]EGTFTSDVSSYLEGEAVKEFIEWLVEKVKEKL-NH2)	39 pM	163 pM	119%

Second part, led by results:

EC50 [2, 3]	EC50 [2, 4]	Structure (SMILES)	4 h Cholesterol Efflux Emax [1]
	34 pM	CC[C@H](C)[C@H](NC(=O)[C@H](Cc1ccccc1)NC(=O)[C@H](CCC(=O)O)NC(=O)[C@H](CCCCN)NC(=O)[C@@H](NC(=O)[C@H](C)NC(=O)[C@H](CCC(=O)O)NC(=O)CNC(=O)[C@H](CCC(=O)O)NC(=O)[C@H](CC(C)C)NC(=O)[C@H](Cc1ccc(O)cc1)NC(=O)[C@H](CO)NC(=O)[C@H](CO)NC(=O)[C@@H](NC(=O)[C@H](CC(=O)O)NC(=O)[C@H](CO)NC(=O)[C@@H](NC(=O)[C@H](Cc1ccccc1)NC(=O)[C@@H](NC(=O)CNC(=O)[C@H](CCC(=O)O)NC(=O)C(C)(C)NC(=O)[C@@H](N)Cc1c[nH]cn1)[C@@H](C)O)[C@@H](C)O)C(C)C)C(C)C)C(=O)N[C@@H](C)C(=O)N[C@@H](Cc1c[nH]c2ccccc12)C(=O)N[C@@H](CC(C)C)C(=O)N[C@H](C(=O)N[C@@H](CCC(=O)O)C(=O)N[C@@H](CCCCN)C(=O)NCC(=O)N[C@@H](CCCCN)C(=O)N[C@@H](CCC(=O)O)C(=O)N[C@@H](Cc1ccccc1)C(=O)N[C@@H](CC(C)C)C(N)=O)C(C)C [Compound 113, [Aib8,Glu23,Val25,Glu34,Lys35,Gly36,Lys37]-GLP-1-(7-37)-peptidyl-Glu-Phe-Leu amide] (H-H[Aib]EGTFTSDVSSYLEGEAVKEFIAWLVEKGKEFL-NH2)	143%
32 pM		CC[C@H](C)[C@H](NC(=O)[C@H](Cc1ccccc1)NC(=O)[C@H](CCC(=O)O)NC(=O)[C@H](CCCCN)NC(=O)[C@@H](NC(=O)[C@H](C)NC(=O)[C@H](CCC(=O)O)NC(=O)CNC(=O)[C@H](CCC(=O)O)NC(=O)[C@H](CC(C)C)NC(=O)[C@H](Cc1ccc(O)cc1)NC(=O)[C@H](CO)NC(=O)[C@H](CO)NC(=O)[C@@H](NC(=O)[C@H](CC(=O)O)NC(=O)[C@H](CO)NC(=O)[C@@H](NC(=O)[C@H](Cc1ccccc1)NC(=O)[C@@H](NC(=O)CNC(=O)[C@H](CCC(=O)O)NC(=O)C(C)(C)NC(=O)[C@@H](N)Cc1c[nH]cn1)[C@@H](C)O)[C@@H](C)O)C(C)C)C(C)C)C(=O)N[C@@H](C)C(=O)N[C@@H](Cc1c[nH]c2ccccc12)C(=O)N[C@@H](CC(C)C)C(=O)N[C@H](C(=O)N[C@@H](CCC(=O)O)C(=O)N[C@@H](CCCCN)C(=O)N[C@H](C(=O)N[C@@H](CCCCN)C(=O)NCC(=O)N[C@@H](Cc1ccccc1)C(=O)N[C@@H](CC(C)C)C(N)=O)C(C)C)C(C)C [Compound 115, [Aib8,Glu23,Val25,Glu34,Lys35,Val36,Lys37]-GLP-1-(7-37)-peptidyl-Glv-Phe-Leu amide] (H-H[Aib]EGTFTSDVSSYLEGEAVKEFIAWLVEKVKGFL-NH2)	94%
16 pM	25 pM	CC[C@H](C)[C@H](NC(=O)[C@H](Cc1ccccc1)NC(=O)[C@H](CCC(=O)O)NC(=O)[C@H](CCCCN)NC(=O)[C@@H](NC(=O)[C@H](C)NC(=O)[C@H](CCC(=O)O)NC(=O)CNC(=O)[C@H](CCC(=O)O)NC(=O)[C@H](CC(C)C)NC(=O)[C@H](Cc1ccc(O)cc1)NC(=O)[C@H](CO)NC(=O)[C@H](CO)NC(=O)[C@@H](NC(=O)[C@H](CC(=O)O)NC(=O)[C@H](CO)NC(=O)[C@@H](NC(=O)[C@H](Cc1ccccc1)NC(=O)[C@@H](NC(=O)CNC(=O)[C@H](CCC(=O)O)NC(=O)C(C)(C)NC(=O)[C@@H](N)Cc1c[nH]cn1)[C@@H](C)O)[C@@H](C)O)C(C)C)C(C)C)C(=O)N[C@@H](C)C(=O)N[C@@H](Cc1c[nH]c2ccccc12)C(=O)N[C@@H](CC(C)C)C(=O)N[C@H](C(=O)N[C@@H](CCC(=O)O)C(=O)N[C@@H](CCCCN)C(=O)N[C@H](C(=O)N[C@@H](CCCCN)C(=O)N[C@@H](CCC(=O)O)C(=O)N[C@@H](CCC(=O)O)C(=O)N[C@@H](CC(C)C)C(N)=O)C(C)C)C(C)C [Compound 116, [Aib8,Glu23,Val25,Glu34,Lys35,Val36,Lys37]-GLP-1-(7-37)-peptidyl-Glu-Glu-Leu amide] (H-H[Aib]EGTFTSDVSSYLEGEAVKEFIAWLVEKVKEEL-NH2)	131%
	11 pM	CC[C@H](C)[C@H](NC(=O)[C@H](Cc1ccccc1)NC(=O)[C@H](CCC(=O)O)NC(=O)[C@H](CCCCN)NC(=O)[C@@H](NC(=O)[C@H](C)NC(=O)[C@H](CCC(=O)O)NC(=O)CNC(=O)[C@H](CCC(=O)O)NC(=O)[C@H](CC(C)C)NC(=O)[C@H](Cc1ccc(O)cc1)NC(=O)[C@H](CO)NC(=O)[C@H](CO)NC(=O)[C@@H](NC(=O)[C@H](CC(=O)O)NC(=O)[C@H](CO)NC(=O)[C@@H](NC(=O)[C@H](Cc1ccccc1)NC(=O)[C@@H](NC(=O)CNC(=O)[C@H](CCC(=O)O)NC(=O)C(C)(C)NC(=O)[C@@H](N)Cc1c[nH]cn1)[C@@H](C)O)[C@@H](C)O)C(C)C)C(C)C)C(=O)N[C@@H](C)C(=O)N[C@@H](Cc1c[nH]c2ccccc12)C(=O)N[C@@H](CC(C)C)C(=O)N[C@H](C(=O)N[C@@H](CCC(=O)O)C(=O)N[C@@H](CCCCN)C(=O)N[C@H](C(=O)N[C@@H](CCCCN)C(=O)N[C@@H](CCC(=O)O)C(=O)NCC(=O)N[C@@H](CC(C)C)C(N)=O)C(C)C)C(C)C [Compound 117, [Aib8,Glu23,Val25,Glu34,Lys35,Val36,Lys37]-GLP-1-(7-37)-peptidyl-Glu-Gly-Leu amide] (H-H[Aib]EGTFTSDVSSYLEGEAVKEFIAWLVEKVKEGL-NH2)	114%
